# According to the supplement of paper PMC13380429:
# Assays:
# Conditions in all cases: 72 h
# [1] = tested on: HepG2; assay: drug sensitivity score (DSS) for viability; higher = more toxic; extreme values may be limits of the assay
# [2] = tested on: Caco-2; assay: as above
# [3] = tested on: U2OS; assay: as above
# [4] = tested on: Calu-3; assay: as above
# [5] = tested on: Vero E6; assay: as above
# [6] = tested on: HepG2; assay: cell viability relative to DMSO; higher = less toxic
# [7] = tested on: Caco-2; assay: as above
# [8] = tested on: U2OS; assay: as above
# [9] = tested on: Calu-3; assay: as above
# [10] = tested on: Vero E6; assay: as above
# [11] = tested on: HepG2; assay: relative viability EC50 (midpoint between 100% and the lowest measured viability); higher = less toxic
# [12] = tested on: Caco-2; assay: as above
# [13] = tested on: U2OS; assay: as above
# [14] = tested on: Calu-3; assay: as above
# [15] = tested on: Vero E6; assay: as above
Structure (SMILES),drug sensitivity score [1],drug sensitivity score [2],drug sensitivity score [3],drug sensitivity score [4],drug sensitivity score [5],cell viability ([6]; 1 nM),cell viability ([6]; 10 nM),cell viability ([6]; 100 nM),cell viability ([6]; 1000 nM),cell viability ([6]; 10000 nM),cell viability ([7]; 1 nM),cell viability ([7]; 10 nM),cell viability ([7]; 100 nM),cell viability ([7]; 1000 nM),cell viability ([7]; 10000 nM),cell viability ([8]; 1 nM),cell viability ([8]; 10 nM),cell viability ([8]; 100 nM),cell viability ([8]; 1000 nM),cell viability ([8]; 10000 nM),cell viability ([9]; 1 nM),cell viability ([9]; 10 nM),cell viability ([9]; 100 nM),cell viability ([9]; 1000 nM),cell viability ([9]; 10000 nM),cell viability ([10]; 1 nM),cell viability ([10]; 10 nM),cell viability ([10]; 100 nM),cell viability ([10]; 1000 nM),cell viability ([10]; 10000 nM),relative viability EC50 [11],relative viability EC50 [12],relative viability EC50 [13],relative viability EC50 [14],relative viability EC50 [15]
CCN(C(C)=O)c1cccc(-c2ccnc3c(C#N)cnn23)c1 [ZALEPLON],0,0,0,0,0,90.5%,95.6%,91%,105%,89.3%,96.6%,102%,100%,104%,96.4%,105%,104%,102%,103%,96%,93.9%,96.7%,96.7%,86.1%,90.7%,97.5%,99.2%,99.3%,101%,95%,> 10 µM,> 10 µM,> 10 µM,> 10 µM,> 10 µM
CC(=O)Oc1ccccc1C(=O)Oc1ccccc1C(=O)O [acetylsalicylsalicylic-acid],0,0,0,0,0,100%,106%,100%,108%,92.4%,103%,96.1%,101%,101%,103%,96.1%,96.8%,103%,104%,106%,95.3%,78.8%,99.3%,97%,91.9%,101%,101%,102%,95.9%,99.9%,> 10 µM,> 10 µM,> 10 µM,> 10 µM,> 10 µM
CSCC[C@H](NC(=O)[C@H](CC(C)C)NC(=O)[C@@H](Cc1c[nH]c2ccccc12)NC(=O)[C@H](Cc1ccccc1)N(C)C(=O)[C@@H](Cc1c[nH]c2ccccc12)NC(=O)[C@@H](N)CCCNC(=N)N)C(N)=O [antagonist-g],0,0,0,0,0,104%,98.1%,103%,84.8%,105%,93.8%,89.7%,96.3%,75.6%,122%,99.9%,93.1%,97.7%,97%,97.4%,105%,91%,98.8%,89.3%,111%,96.2%,97%,102%,85.6%,96.3%,> 10 µM,> 10 µM,> 10 µM,> 10 µM,> 10 µM
CCCC1(CCC)CCC2(CCN(CCCN(CC)CC)C2)CC1 [atiprimod],8.3,5.1,5.3,7.7,5.9,91.1%,94.8%,93.2%,83.3%,0%,99.2%,94.7%,98.4%,94.9%,20.7%,101%,105%,95.8%,96.1%,14.6%,103%,103%,101%,86.9%,0.7%,97.9%,98.7%,101%,92.1%,16.9%,1.89 µM,2.66 µM,2.82 µM,2.1 µM,2.38 µM
NC(=O)[C@@H]1CC[C@@H]2CN1C(=O)N2OS(=O)(=O)O [avibactam],0,0,0,0,0,114%,109%,90.9%,98.4%,97.8%,101%,92.5%,92.5%,95.7%,92.7%,97.2%,94.6%,101%,96.9%,98.7%,94.8%,81.7%,104%,91.3%,104%,95%,96.5%,97.6%,97.1%,98.6%,> 10 µM,> 10 µM,> 10 µM,> 10 µM,> 10 µM
COc1ccc2cc3[n+](cc2c1OC)CCc1cc2c(cc1-3)OCO2 [berberine],5.1,1.5,1.6,0,0,99.8%,103%,87.7%,92.1%,30.6%,110%,106%,97.4%,86.9%,82.5%,106%,96.8%,103%,93.7%,77.2%,94.3%,101%,105%,101%,97.3%,107%,93%,95.3%,107%,96.1%,2.23 µM,> 10 µM,> 10 µM,> 10 µM,> 10 µM
Brc1c(NC2=NCCN2)ccc2nccnc12 [brimonidine],0,0,0,0,0,98.1%,97.6%,96.7%,107%,105%,107%,97.2%,108%,90.7%,103%,100%,105%,99.6%,96.6%,106%,103%,98.1%,88.1%,97.2%,103%,99%,102%,97.5%,100%,102%,> 10 µM,> 10 µM,> 10 µM,> 10 µM,> 10 µM
C=C1/C(=C\C=C2/CCC[C@]3(C)[C@@H]([C@H](C)/C=C/[C@@H](O)C4CC4)CC[C@@H]23)C[C@@H](O)C[C@@H]1O [calcipotriol],0,0,0,0,0,101%,88.5%,95%,99.6%,94.6%,94.7%,88.6%,99.6%,88.3%,89.9%,99.5%,96.9%,99%,94.8%,93.5%,95.4%,108%,102%,93.7%,96%,97.5%,96.7%,98.2%,92.3%,91.9%,> 10 µM,> 10 µM,> 10 µM,> 10 µM,> 10 µM
c1coc(-c2nnc3sc(C4CCCCC4)nn23)c1 [cardionogen-1],4.9,2.2,0,0,0.3,98.7%,97.1%,99.4%,88.3%,44.6%,100%,94.7%,104%,81.1%,89.7%,95%,100%,95.9%,97.8%,93.3%,109%,97.4%,109%,102%,97.1%,98.3%,97.1%,95.5%,98%,86.6%,1.69 µM,> 10 µM,> 10 µM,> 10 µM,> 10 µM
CC(C)c1ccc(C(=O)N=C(N)N)cc1S(C)(=O)=O [cariporide],0,0,0,0,0,102%,84.4%,89.7%,98%,95.6%,109%,107%,102%,89.7%,107%,100%,98.2%,100%,96.1%,97%,102%,96.7%,93.6%,96.3%,106%,102%,101%,106%,108%,92.3%,> 10 µM,> 10 µM,> 10 µM,> 10 µM,> 10 µM
NCCC(=O)N[C@@H](Cc1c[nH]cn1)C(=O)O [carnosine],4.8,6.6,4.1,2.8,5.2,111%,101%,97%,101%,12%,99.5%,97.8%,92.3%,88.6%,15.4%,96%,97.2%,92.3%,99.1%,28.7%,95%,93.4%,104%,99.4%,48.6%,94.3%,95.3%,95%,95.5%,17.9%,3.22 µM,2.08 µM,3.07 µM,3.08 µM,2.74 µM
NC(=O)CN1Cc2ccccc2OC1=O [caroxazone],0,0,0,0,0,101%,94.6%,101%,93.1%,100%,109%,102%,101%,96%,104%,100%,99%,101%,95.3%,102%,103%,93.2%,93.7%,105%,101%,99.5%,99.8%,101%,96.9%,96.4%,> 10 µM,> 10 µM,> 10 µM,> 10 µM,> 10 µM
CC(=O)OCC1=C(C(=O)O)N2C(=O)[C@@H](NC(=O)Cc3cccs3)[C@H]2SC1 [cephalothin],0.8,0,0,0,0,87.9%,102%,86%,86.8%,86.3%,110%,103%,102%,98.5%,119%,104%,98.4%,94.1%,99.4%,104%,117%,94.2%,104%,103%,106%,100%,97.6%,93.6%,88.7%,110%,> 10 µM,> 10 µM,> 10 µM,> 10 µM,> 10 µM
